The record followed here is patent publication US20050208197A1, “Refreshment capable of stimulating movement of digestive tract” (priority 2002, published 2005).

The test system of one series is stomach emptying in mice. The series can be described thus: Stomach emptying in mice (phenol red test feed). The format is in vivo. The note with it: oral, dose-dependent, P<0.05 vs distilled water, FIG. 15. As for the experimental part: Using a stomach tube, ddY line mice (10 animals in each group) were orally administered each of distilled water, the active substances α and β following an 18-hour fasting period. 60 minutes after administration, each animal was orally administered a test feed (0.2 mL/animal; 1.5% methylcellulose solution containing 0.05% phenol red) using the same technique. After 15 minutes, the animals were sacrificed by cervical dislocation and the stomachs were removed. The stomachs, along with their contents, were then homogenized in 10 mL 0.1N NaOH and the homogenates were allowed to stand for 1 hour at room temperature. To 1 mL of the resulting supernatant, 0.1 mL 20% trichloroacetic acid was added and the supernatant was centrifuged to precipitate proteins. Subsequently, 0.5 ml of the resulting supernatant was collected and 0.5 mL 0.5N NaOH was added to color the solution. The absorbance of the solution at 560 nm was measured to determine the amount of phenol red remaining in the stomach. The rate of stomach emptying was determined by the following equation: Stomach emptying rate (%)=(A−B)/A×100 where ‘A’ is the amount of phenol red in the stomach immediately after the administration of the test feed; and ‘B’ is the amount of phenol red remaining in the stomach 15 minutes after the administration of the test feed. 2. Results

Series [1] addresses T1, human muscarinic M3 receptors (Homo sapiens, UniProt P20309).
T1 construct: expressed in transfected cells; host or cells: CHO (Chinese hamster ovary) cells, membrane preparation
The series can be described thus: Test for binding activity to muscarinic M3 receptors ([3H]4-DAMP displacement). As for the experimental part:
The mixture was then incubated at 22° C. for 60 min. Subsequently, the reaction mixture was filtered through a glass fiber filter (GF/B, PACKARD) while aspirated. Once the reaction came to an end, the mixture was washed several times with ice-chilled buffer. A scintillation cocktail (Microscint O, PACKARD) was then added to the filter, and the residual radioactivity was measured by a liquid scintillation counter (Topcount, PACKARD).

Series [2] can be described thus: Water solubility of the isolated active substances. It counts as physicochemical. The source says:
In another aspect, the present invention provides a method for separating/purifying the active substances α and β. Specifically, the method includes freeze-drying beer, which serves as the starting material, to remove volatile components and collect non-volatile components; subjecting the non-volatile components to a chromatography using synthetic absorbent to remove unadsorbed components and collect adsorbed components in a crude fraction containing concentrated active substances; subjecting the crude fraction to a weakly acidic cation exchange chromatography to remove unadsorved components; eluting the active substances with acidic methanol (methanol/hydrochloric acid); subjecting the eluate to gel filtration chromatography using 0.01N hydrochloric acid to obtain a purified fraction; subjecting the purified fraction to C18 high performance liquid chromatography (ODS-HPLC) for further purification to isolate the two active substances. The active substances so obtained were water-soluble.

T1 sequence (P20309 whole entry): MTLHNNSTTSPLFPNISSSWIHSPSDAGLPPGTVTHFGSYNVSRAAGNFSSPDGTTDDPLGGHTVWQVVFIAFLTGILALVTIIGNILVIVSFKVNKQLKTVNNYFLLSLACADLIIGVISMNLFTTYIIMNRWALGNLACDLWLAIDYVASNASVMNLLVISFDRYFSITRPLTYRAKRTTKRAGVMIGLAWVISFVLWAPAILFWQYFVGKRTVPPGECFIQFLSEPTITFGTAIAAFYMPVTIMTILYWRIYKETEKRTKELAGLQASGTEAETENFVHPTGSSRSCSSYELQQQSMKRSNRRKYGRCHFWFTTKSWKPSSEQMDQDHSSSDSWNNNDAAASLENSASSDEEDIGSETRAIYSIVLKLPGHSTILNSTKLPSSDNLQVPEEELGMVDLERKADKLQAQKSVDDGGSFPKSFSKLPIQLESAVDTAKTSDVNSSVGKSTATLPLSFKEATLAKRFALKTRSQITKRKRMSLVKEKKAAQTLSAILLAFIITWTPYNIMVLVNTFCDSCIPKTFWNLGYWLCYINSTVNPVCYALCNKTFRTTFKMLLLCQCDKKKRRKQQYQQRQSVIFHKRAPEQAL

The IC50 is the concentration at which inhibition is half-maximal. Low readings indicate inhibition by little substance, high ones a need for much substance. Turning to `N=C(N)NCCCCNC(=O)/C=C/c1ccc2c(c1)[C@H](C(=O)NCCCCNC(=N)N)[C@H](c1ccc(O)cc1)O2` [active substance α], the “stimulation of stomach emptying” value in the series on stomach emptying in mice (0.1 and 0.3 mg/kg) is reported as “significantly stimulated stomach emptying”. Also, the IC50 in series [1] is 1.18 µM. Also, the solubility in water result in series [2] is “water-soluble”.
On to `N=C(N)NCCCCNC(=O)/C=C/c1ccc2c(c1)[C@@H](C(=O)NCCCCNC(=N)N)[C@H](c1ccc(O)cc1)O2` [active substance β], for which the “stimulation of stomach emptying” value in the series with stomach emptying in mice (0.3 and 1.0 mg/kg) is reported as “significantly stimulated stomach emptying”. The IC50 in series [1] is 4.18 µM. In addition, the solubility in water entry in series [2] is on record as “water-soluble”.
